From patent publication US8841316B2, “Multicomponent crystalline system of rosuvastatin calcium salt and vanillin” (BASF SE, priority 2011, dated 2014) come the findings set out here.

A short description of this data set: Water vapor sorption (water content under humidity). The format is physicochemical.

“bis[(E)-7-[4-(4-fluorophenyl)-6-isopropyl-2-[methyl(methylsulfonyl)amino]pyrimidin-5-yl](3R,5S)-3,5-dihydroxyhept-6-enoic acid] calcium salt [Crystal form A]”: the “Water vapor sorption: water content after 2 h at 50% r.h.” value (after 2 h at 50% r.h.) is recorded as 6.2%. The “Water vapor sorption: water content after 5 h at 95% r.h.” value (after 5 h at 95% r.h.) was 10.1%.
